Results reported in patent US6071884A, “Pharmaceutical compositions and therapeutic methods” (Kirin Beer Kabushiki Kaisha, priority 1992, dated 2000).

Experiments:
[1] = tested on: marrow cells (mononuclear cell fraction); assay: Proliferation-stimulating effect on marrow cell of mouse (3H-TdR uptake); type: cell-based, mouse (BALB/c); conditions: percentage of control, 72 h; for activity at 0.1 µg/mL: 10^-1 μg/ml; for activity at 0.01 µg/mL: 10^-2 μg/ml; for activity at 0.001 µg/mL: 10^-3 μg/ml
Summary of the method: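 Mononuclear marrow cell fraction from 7-week-old female BALB/c mouse thigh bone, 1.5×10^6 cells/ml in 10% FCS RPMI 1640, cultured with test sample 72 h at 37° C. ³H-thymidine (0.5 μCi/well) then added for 8 h; nuclear ³H-TdR uptake counted by liquid scintillation.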

blood platelets [2] = assay: Blood-platelet-increasing effect upon normal mouse; type: in vivo, mouse (BDF1); conditions: normal mice; 6 days after 0.1 mg/kg i.v.; mean ± SD; vehicle per series 58.2, 63.0, 71.1
Summary of the method: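 Female BDF1 mice, 6 weeks old (5 per group), received test sample at 0.1 mg/kg into the caudal vein. Six days later, fundus-vein blood was taken and platelets counted on a multi-channel hemocytometer, compared against vehicle-treated animals.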

Acute toxicity = type: in vivo; conditions: 7 days
Protocol: Test Example 2: Acute Toxicity
0.1, 1.0 or 10 mg/kg of Compound 5 or 33 was intravenously administered to Crj:CD rats (male, 5 weeks old), 6 rats in one group. 7 days after the administration, a toxicity test was carried out.

blood platelets [3] = assay: Thrombocytopenia-inhibiting effect in X-ray-irradiated mice; type: in vivo, mouse (BDF1); conditions: 10 days after 5 Gy X-ray; 0.1 mg/kg i.v. within 2 h; mean ± SD; vehicle per series 10.3, 6.8, 6.7; non-treatment 68.2, 96.9, 73.0
Summary of the method: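 Female BDF1 mice, 6 weeks old, six per group, given 5 Gy whole-body X-ray, then 0.1 mg/kg i.v. via tail vein within 2 hours. Platelets counted by hemocytometer in fundus-vein blood 10 days later; untreated and vehicle groups run alongside.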

[4] = Life-span-increasing effect on irradiation of a lethal dose of radiation; type: in vivo, mouse (BDF1); conditions: 10 mice/group, 9 Gy X-ray, 0.1 mg/kg i.v. days 0, 4, 8
Protocol: Pharmacological Test 4: Life-Span-Increasing Effect on Irradiation of a Lethal Dose of Radiation
An experiment was carried out by using 6 week old female BDF1 mice purchased from Japan SLC Co., Ltd., with 10 mice made one group.
The entire bodies of the entire body of the mice were irradiated with 9 Gy of X-rays by using a Hitachi X-ray irradiator (MBR-1520R), and the day on which the X-ray was irradiated was referred to as "day 0".

[5] = tested on: marrow cells (mononuclear cell fraction); assay: Effect on marrow cell of monkey (3H-TdR uptake); type: cell-based, croo monkey; conditions: Primates, 96 h, percentage of control, 4 days
Protocol: Pharmacological Test 2: Effect on Marrow Cell of Monkey
Marrow cells were prepared from the humerus of a croo monkey, and an MNF obtained by fractionation using a Lymphoprep (Nycomed Pharma AS, Oslo, Norway) was used in the following experiment.
The MNF was suspended in an RPMI 1640 medium added with 10% blood plasma of a croo monkey to make its concentration 1×10^6 cells/ml.
10 μl/well of a sample with a predetermined concentration and 100 μl/well of the above-prepared MNF were placed on a round-bottomed 96 well plate, and incubated under the conditions of 37° C. and 5% CO2 for 4 days. Thereafter, 0.5 μCi/well of ^3 H-TdR was added. After 6 hours, the cells were harvested, and the amount of the ^3 H-TdR taken in the nuclei was measured by a liquid scintillation counter.

[6] = tested on: mononuclear cell fraction of human umbilical cord blood; assay: Proliferation-stimulating effect on mononuclear cell fraction of human umbilical cord blood (3H-TdR uptake); type: cell-based; conditions: 96 h, percentage of control, 4 days
Source text: Pharmacological Test 3: Proliferation-Stimulating Effect on Mononuclear Cell Fraction of Human Umbilical Cord Blood
It is extremely difficult to obtain human marrow cells. In addition, human umbilical cord blood contains stem cells (Nakahata, T. & Ogwa, M., J. Clin. Inveet. 70, 1324-1328 (1982)), so that it can be a good source of hematopoietic stem/progenitor cell supply (H. E. Broxneyer et al, Proc. Natl. Acad. Sci. USA, 86, 3828-3832 (1989)). For these reasons, the effect on human was examined by using, instead of human marrow cells, human umbilical cord blood.
To human umbilical cord blood was added an equal amount of RPMI 1640. This was placed on a Lymphoprep and centrifugal. The mononuclear cell fraction (MNF) thus obtained was used in the following experiment.
The concentration of the MNF was adjusted to 1×10^6 cells/ml by using an RPMI 1640 added with 10% auto-blood plasma as a culture medium. 10 μl/well of a sample with a predetermined concentration and 100 μl/well of the above-prepared MNF were placed on a round-bottomed 96 well plate and incubated under the conditions of 37° C. and 5% CO2 for 4 days. Thereafter, 0.5 μCi/well of ^3 H-TdR was added. After 8 hour incubation, the cells were harvested, and the amount of the 3H-TdR taken in the nuclei was measured by a liquid scintillation counter.

[7] = day 10, controls per series 10, 10, 10, 10, 10, 8
[8] = day 15, controls per series 8, 9, 5, 5, 7, 1
[9] = day 20, controls per series 4, 5, 1, 2, 3, 0
[10] = day 25, controls per series 3, 3, 0, 0, 2, 0
[11] = day 30, controls per series 1, 1, 0, 0, 0, 0

Structure (SMILES)	activity at 0.1 µg/mL [1] [%]	activity at 0.01 µg/mL [1] [%]	activity at 0.001 µg/mL [1] [%]	Number of Blood Platelets (blood platelets [2])	death of rats (Acute toxicity; 10 mg/kg i.v.)	post-mortem examination (Acute toxicity; i.v. 0.1, 1.0 or 10 mg/kg)	Number of Blood Platelets (blood platelets [3])	Number of Surviving Mice [4, 7] [mice]	Number of Surviving Mice [4, 8] [mice]	Number of Surviving Mice [4, 9] [mice]	Number of Surviving Mice [4, 10] [mice]	Number of Surviving Mice [4, 11] [mice]	Number of Surviving Mice ([4]; day 35, all controls 0) [mice]	Number of Surviving Mice ([4]; day 40, all controls 0) [mice]	activity at 0.1 µg/mL ([5]; 10^-1 μg/ml) [%]	activity at 0.01 µg/mL ([5]; 10^-2 μg/ml) [%]	activity at 0.1 µg/mL ([6]; 10^-1 μg/ml) [%]	activity at 0.01 µg/mL ([6]; 10^-2 μg/ml) [%]	activity at 0.001 µg/mL ([6]; 10^-3 μg/ml) [%]
CCCCCCCCCCCCCCC[C@@H](O)[C@H](CO[C@H]1O[C@H](CO)[C@H](O)[C@H](O)[C@H]1O)NC(=O)CCCCCCCCCCCCC [Compound 5, (2S,3R)-1-(α-D-galactopyranosyloxy)-2-tetradecanoylamino-3-octadecanol]	377	261	234	106.0 ± 9.0 × 10^4 /μl	the rats did not die	no abnormality was found	20.3 ± 4.5 × 10^4 /μl	10	9	9	9	9	9	9	–	–	–	–	–
CCCCCCCCCCCCCCCCCCCCCCCC[C@@H](O)C(=O)N[C@@H](CO[C@H]1O[C@H](CO)[C@H](O)[C@H](O)[C@H]1O)[C@H](O)[C@H](O)CCCCCCCCCCCCCC [Compound 25]	331	161	153	124.1 ± 14.7 × 10^4 /μl	–	–	15.6 ± 5.3 × 10^4 /μl	10	10	7	7	5	5	5	184	186	336	319	229
